Experimental findings from patent publication EP0056152B1, “Process for the after-treatment of linen” (Henkel Kommanditgesellschaft auf Aktien, priority 1981, dated 1982) are described below.

Where two headings read alike, the source gives them in different places.

Holding throughout (assay): Agar plate test with treated textile pieces (inhibition zone)
Holding throughout (assay type): cell-based

The subject of assay [1] is Trichophyton mentagrophytes. The following applies: 30°C; for zone of inhibition at 1000 µg/mL: azole 1 g/l in liquor with 3 g/l fabric softener; for zone of inhibition at 100 µg/mL: azole 0,1 g/l in liquor with 3 g/l fabric softener; for zone of inhibition at 200 µg/mL: azole 0,2 g/l in liquor with 3 g/l fabric softener. Here is the method: (§1) Zur Prüfung der antimikrobiellen Wirksamkeit wurde die erfindungsgemäße Ausrüstung der Textilien wie folgt vorgenommen: • 2 x 2 cm große Textilstücke aus Baumwollköper (BW), Wolle (WO) und Nylon (NY) wurden in einer Behandlungsflotte von 20°C 10 Minuten lang bewegt und anschließend bei Raumtemperatur getrocknet. Der Behandlungsflotte waren verschiedene Azolverbindungen in unterschiedlicher Konzentration (s. Tabelle) und 3 g pro 1 Waschflotte eines handelsüblichen Wäscheweichspülmittels mit einem Gehalt an 5 Gew.-% Dimethyl-ditalgalkyl-ammoniumchlorid als textilweichmachender quartärer Ammoniumverbindung zugesetzt. Die Textilproben wurden auf mit unterschiedlichen Testkeimen beimpfte Agarplatten aufgelegt, bis zum Eintritt eines vollen Wachstums bei 30°C bebrütet und dann die antimikrobiellen Effekte abgelesen. Dabei bedeuten: • + = volles Wachstum • 0 = kein Hemmhof, kein Wachstum auf den Läppchen • Zahl = Hemmhof in mm um das Gewebe • (Zahl) = Größe des Hemmhofes mit diffuser Begrenzung in mm.
Zum Vergleich wurde die antimikrobielle Wirkung eines azolverbindungsfreien Wäschenachbehandlungsmittels geprüft. Die Ergebnisse sind in der folgenden Tabelle aufgeführt:
(§2) In einer weiteren Versuchsreihe wurden andere Azolverbindungen bei einer Anwendungskonzentration von 1 g/I Behandlungsflotte gemeinsam mit dem Wäschebehandlungsmittel der Beispiele 1 bis 7 (Konzentration 3 g/I Behandlungsflotte) eingesetzt. Auch hier wurde ein Vergleichsversuch ohne Azolverbindung durchgeführt.

Another assay deals with Epidermophyton floccosum. The settings on record: azole 1 g/l in liquor with 3 g/l fabric softener, 30°C. Here is the method: as §1, §2
A further assay relates to Microsporum gypseum. The following applies: Nannizzia gypsea, 30°C, read-out: Hemmhof in mm um das Gewebe; for zone of inhibition at 100 µg/mL: azole 0,1 g/l in liquor with 3 g/l fabric softener; for zone of inhibition at 200 µg/mL: azole 0,2 g/l in liquor with 3 g/l fabric softener. Here is the method: as §1
(§3) Zum Vergleich wurde die antimikrobielle Wirkung eines azolverbindungsfreien Wäschenachbehandlungsmittels geprüft. Die Ergebnisse sind in der folgenden Tabelle aufgeführt: […]

In a further assay the test system is Trichophyton rubrum. The settings on record: 30°C, read-out: Hemmhof in mm um das Gewebe; for zone of inhibition at 100 µg/mL: azole 0,1 g/l in liquor with 3 g/l fabric softener; for zone of inhibition at 200 µg/mL: azole 0,2 g/l in liquor with 3 g/l fabric softener. Here is the method: as §1, §3
The mark [2] stands for this setting: BW (Baumwollköper), read-out: Hemmhof in mm um das Gewebe.
Setting [3] is: NY (Nylon), read-out: Hemmhof in mm um das Gewebe.
Setting [4] is: WO (Wolle), read-out: Hemmhof in mm um das Gewebe.
The mark [5] stands for this setting: value in brackets, BW (Baumwollköper), read-out: Größe des Hemmhofes mit diffuser Begrenzung in mm.
Where [6] appears, read: value in brackets, NY (Nylon), read-out: Größe des Hemmhofes mit diffuser Begrenzung in mm.
Where [7] appears, read: value in brackets, WO (Wolle), read-out: Größe des Hemmhofes mit diffuser Begrenzung in mm.

In the case of `Cc1ccccc1C1(n2ccnc2)c2ccccc2-c2ccccc21` [compound 009], the zone of inhibition at 1000 µg/mL in assay [1] (setting [2]) is 7 mm; in assay [1] (setting [3]) it was 10 mm; in assay [1] (setting [4]) it was 9 mm; in assay [1] (setting [5]), 10 mm; in assay [1] (setting [6]), 14 mm; in assay [1] (setting [7]), 14 mm. Moreover, the zone of inhibition at 1000 µg/mL came to 10 mm in the assay with Epidermophyton floccosum (setting [2]); 5 mm with Epidermophyton floccosum (setting [3]); 11 mm in the assay with Epidermophyton floccosum (setting [4]); 13 mm in the assay with Epidermophyton floccosum (setting [5]); 10 mm with Epidermophyton floccosum (setting [6]); 17 mm in the assay on Epidermophyton floccosum (setting [7]).
On to `CC(C)(C)C(=O)C(Oc1ccc(Cl)cc1)n1ccnc1` (centres unmarked) [compound 003], for which the zone of inhibition at 1000 µg/mL in assay [1] (setting [2]) turned out to be 5 mm; in assay [1] (setting [3]), 0.5 mm; in assay [1] (setting [4]), 9 mm; in assay [1] (setting [5]), 10 mm; in assay [1] (setting [7]) it was 16 mm; in the assay on Epidermophyton floccosum (setting [2]), 3 mm. Further, the zone of inhibition at 1000 µg/mL amounted to 10 mm in the assay with Epidermophyton floccosum (setting [4]), 9 mm in the assay with Epidermophyton floccosum (setting [5]), 0.5 mm with Epidermophyton floccosum (setting [6]) and 17 mm with Epidermophyton floccosum (setting [7]).
As to `CC(C)(C)C(c1ccccc1)(c1ccccc1)n1ccnc1` [compound 065], the zone of inhibition at 100 µg/mL was 26 mm in assay [1] (setting [2]); 25 mm in assay [1] (setting [3]); 25 mm in assay [1] (setting [4]); 26 mm in the assay with Microsporum gypseum (BW (Baumwollköper)); 14 mm in the assay on Microsporum gypseum (NY (Nylon)); 21 mm in the assay on Microsporum gypseum (WO (Wolle)). In addition, the zone of inhibition at 100 µg/mL in the assay with Trichophyton rubrum (BW (Baumwollköper)) came to 25 mm; in the assay with Trichophyton rubrum (NY (Nylon)), 18 mm; in the assay with Trichophyton rubrum (WO (Wolle)), 23 mm. For the same molecule, the zone of inhibition at 200 µg/mL in assay [1] (setting [2]) turned out to be 28 mm; in assay [1] (setting [3]), 26 mm; in assay [1] (setting [4]) it was 28 mm; with Microsporum gypseum (BW (Baumwollköper)), 28 mm; in the assay on Microsporum gypseum (NY (Nylon)), 25 mm; in the assay on Microsporum gypseum (WO (Wolle)), 25 mm. For the same molecule, the zone of inhibition at 200 µg/mL came to 29 mm in the assay on Trichophyton rubrum (BW (Baumwollköper)), 23 mm in the assay with Trichophyton rubrum (NY (Nylon)) and 28 mm in the assay with Trichophyton rubrum (WO (Wolle)).
In the case of `C#CC(c1ccccc1)(c1ccccc1)n1ccnc1` [compound 001], the zone of inhibition at 1000 µg/mL came out at 15 mm in assay [1] (setting [2]); 9 mm in assay [1] (setting [3]); 17 mm in assay [1] (setting [4]); 20 mm in assay [1] (setting [5]); 12 mm in assay [1] (setting [6]); 20 mm in assay [1] (setting [7]). The zone of inhibition at 1000 µg/mL in the assay with Epidermophyton floccosum (setting [2]) amounted to 21 mm; in the assay with Epidermophyton floccosum (setting [3]) it was 7 mm; in the assay on Epidermophyton floccosum (setting [4]), 21 mm; in the assay on Epidermophyton floccosum (setting [6]), 12 mm.
`O=[N+]([O-])CC(c1c(Cl)cccc1Cl)n1cnc(Cl)n1` (centres unmarked) [compound 046]: the zone of inhibition at 100 µg/mL in assay [1] (setting [2]) worked out at 7 mm; in assay [1] (setting [3]) it was 5 mm; in assay [1] (setting [4]), 13 mm; in the assay on Microsporum gypseum (BW (Baumwollköper)) it was 14 mm; in the assay on Microsporum gypseum (NY (Nylon)), 8 mm; with Microsporum gypseum (WO (Wolle)) it was 8 mm. Further, the zone of inhibition at 100 µg/mL was found to be 9 mm with Trichophyton rubrum (BW (Baumwollköper)), 4 mm in the assay with Trichophyton rubrum (NY (Nylon)) and 13 mm in the assay on Trichophyton rubrum (WO (Wolle)). In addition, the zone of inhibition at 200 µg/mL in assay [1] (setting [2]) is 13 mm; in assay [1] (setting [3]) it was 10 mm; in assay [1] (setting [4]), 13 mm; in the assay on Microsporum gypseum (BW (Baumwollköper)), 16 mm; with Microsporum gypseum (NY (Nylon)) it was 10 mm; with Microsporum gypseum (WO (Wolle)), 10 mm. The zone of inhibition at 200 µg/mL with Trichophyton rubrum (BW (Baumwollköper)) is 12 mm; in the assay on Trichophyton rubrum (NY (Nylon)), 7 mm; in the assay with Trichophyton rubrum (WO (Wolle)) it was 7 mm.
Consider `O=[N+]([O-])CC(c1c(Cl)cccc1Cl)n1cncn1` (centres unmarked) [compound 045], for which the zone of inhibition at 100 µg/mL in assay [1] (setting [2]) was 11 mm; in assay [1] (setting [3]) it was 8 mm; in assay [1] (setting [4]), 8 mm; in the assay with Microsporum gypseum (BW (Baumwollköper)), 10 mm; in the assay with Microsporum gypseum (NY (Nylon)), 7 mm; with Microsporum gypseum (WO (Wolle)), 10 mm. In addition, the zone of inhibition at 100 µg/mL in the assay with Trichophyton rubrum (BW (Baumwollköper)) came to 12 mm; with Trichophyton rubrum (NY (Nylon)), 7 mm; in the assay with Trichophyton rubrum (WO (Wolle)), 10 mm. Further, the zone of inhibition at 200 µg/mL in assay [1] (setting [2]) was 16 mm; in assay [1] (setting [3]), 12 mm; in assay [1] (setting [4]) it was 11 mm; in the assay on Microsporum gypseum (BW (Baumwollköper)), 20 mm; with Microsporum gypseum (NY (Nylon)), 14 mm; in the assay with Microsporum gypseum (WO (Wolle)), 12 mm. Further, the zone of inhibition at 200 µg/mL with Trichophyton rubrum (BW (Baumwollköper)) was found to be 25 mm; in the assay with Trichophyton rubrum (NY (Nylon)), 7 mm; in the assay on Trichophyton rubrum (WO (Wolle)), 18 mm.
